Laboratory results: PubChem BioAssay (NCI)
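96-well plates; 48 h exposure; 5 concentrations. Endpoints by linear interpolation between flanking doses. Not reached: highest tested concentration assigned. At the GI50, growth is halved. TGI is the concentration that stops growth completely.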

How the values were obtained:
Assay in all cases: NCI tumour cell line growth inhibition, 48 h
HOP-92 NSCLC = system: HOP-92 NSCLC
SNB-75 CNS = system: SNB-75 CNS
NCI-H226 lung = system: NCI-H226 lung
DMS 273 small cell lung = system: DMS 273 small cell lung
DMS 114 small cell lung = system: DMS 114 small cell lung
M19-MEL melanoma = system: M19-MEL melanoma
P388/ADR leukemia = system: P388/ADR leukemia
XF 498 CNS = system: XF 498 CNS
KM20L2 colon = system: KM20L2 colon
P388 leukemia = system: P388 leukemia
DLD-1 colon = system: DLD-1 colon
SN12K1 renal = system: SN12K1 renal
HOP-18 NSCLC = system: HOP-18 NSCLC
RXF-631 renal = system: RXF-631 renal
SNB-78 CNS = system: SNB-78 CNS
LXFL 529 NSCLC = system: LXFL 529 NSCLC

Row | SMILES | TGI (HOP-92 NSCLC) [µM] | TGI (SNB-75 CNS) [µM] | TGI (NCI-H226 lung) [µM] | also measured
1 | O=C1OC[C@@H]2Cc3c([nH]c4ccccc34)[C@@H](c3ccc(O)cc3)N12 | > 100 | 69.4 | 80.1 | –
2 | CCOC(=O)c1c(SCCN2CCCC2)n(-c2ccccc2)c(=S)n(-c2ccccc2)c1=O | 4.48 | 19.5 | 33.9 | –
3 | CC(C)=CC1C(C(=O)O)C1(C)C (stereo not given) | > 750 | > 750 | > 750 | TGI (DMS 273 small cell lung): > 750 µM; TGI (DMS 114 small cell lung): > 750 µM; TGI (M19-MEL melanoma): > 750 µM; TGI (P388/ADR leukemia): > 750 µM; TGI (XF 498 CNS): > 75 µM; TGI (KM20L2 colon): > 750 µM; TGI (P388 leukemia): > 750 µM; TGI (DLD-1 colon): > 750 µM; TGI (SN12K1 renal): > 750 µM; TGI (HOP-18 NSCLC): > 750 µM
4 | CCOC(=O)C1C(=O)CC(O)(c2ccccc2)C(C(=O)OCC)C1c1ccc(OC)cc1 (stereo not given) | > 82 | 11.9 | > 100 | –
5 | CC1=CC(=O)N(n2c(C)n[nH]c2=O)C1=O | > 100 | – | > 100 | –
6 | Cc1cc2cccc(Cl)c2nc1C(=O)c1ccccc1 | – | 56.8 | > 100 | TGI (DMS 273 small cell lung): > 100 µM; TGI (RXF-631 renal): > 100 µM; TGI (DMS 114 small cell lung): > 100 µM; TGI (M19-MEL melanoma): > 100 µM; TGI (XF 498 CNS): > 100 µM; TGI (KM20L2 colon): > 100 µM; TGI (DLD-1 colon): > 100 µM; TGI (SNB-78 CNS): > 100 µM; TGI (HOP-18 NSCLC): > 100 µM; TGI (LXFL 529 NSCLC): > 100 µM
7 | CC1CC(C#N)=C2NCCCCN2C1=O (stereo not given) | – | > 100 | > 100 | –
8 | COc1cc([C@@H]2c3cc4c(cc3C[C@H]3COC(=O)[C@@H]32)OCO4)cc(OC)c1OC | – | > 13.3 | 0.891 | TGI (DMS 273 small cell lung): > 4.13 µM; GI50 (HOP-92 NSCLC): 0.00752 µM; TGI (DMS 114 small cell lung): 0.0167 µM; TGI (M19-MEL melanoma): > 50 µM; TGI (P388/ADR leukemia): 0.502 µM; TGI (XF 498 CNS): 1.88 µM; TGI (P388 leukemia): > 15.8 µM; GI50 (SNB-75 CNS): 0.0042 µM; TGI (DLD-1 colon): > 50 µM; TGI (SNB-78 CNS): > 50 µM; GI50 (NCI-H226 lung): 0.00524 µM; TGI (SN12K1 renal): > 3.86 µM; TGI (HOP-18 NSCLC): > 50 µM
9 | O=C1NC(=S)NC(=O)C1C(c1ccccc1[N+](=O)[O-])C1C(=O)NC(=S)NC1=O | > 100 | – | > 100 | –
10 | Cc1cc(O)cc(O)c1N=Nc1ccc([N+](=O)[O-])cc1 | 8.17 | 45.6 | – | –
11 | Cc1oc2nc(N(C)C)n3nnnc3c2c1C | > 100 | > 100 | > 100 | –
12 | O=c1c2cc(I)ccc2[nH]c(=S)n1Cc1ccccc1 | 63.2 | 54.4 | > 100 | –
13 | N#CSCc1cccc(Nc2cc(=O)[nH]c(=O)[nH]2)c1 | 85.7 | > 100 | > 100 | –
14 | Brc1ccc2c3c1[C@@H]1O[C@@H]1c1cccc(c1-3)[C@@H]1O[C@H]21 | 43.5 | 45.2 | > 100 | –
15 | CCOC(=O)c1cnc2[nH]ccn2c1=O | > 10 | > 10 | > 10 | –
16 | COC(=O)C1CC(C=[N+](C)C)=C(SC)N1 (stereo not given) | > 100 | > 100 | – | –
17 | NCCCC(N)C(=O)O (stereo not given) | > 100 | > 100 | > 100 | –
18 | O=C1C(C=NCCc2c[nH]c3ccccc23)C(C(F)(F)F)=NN1c1nc2ccccc2s1 (stereo not given) | 48.5 | > 100 | 68 | –
19 | CN(O)C(=O)Cc1ccc(OCc2cccc(Cl)c2)cc1 | > 100 | > 100 | > 100 | –
20 | Cc1cccc(N(CCC#N)S(=O)(=O)c2ccccc2)c1 | > 100 | > 100 | > 100 | –
21 | COc1cc2c(cc1OC)C(=O)/C(=C/c1cc(C)c(O)c(C)c1)C2 | > 100 | > 100 | > 59.7 | –
22 | CCOC(=O)C(=O)N1C(C)=C(C(=O)OCC)CC(C(=O)OCC)=C1C | > 100 | > 100 | – | –
23 | CC(C)(CO)N1C(=O)c2ccccc2C1(O)c1ccc(Cl)cc1 (stereo not given) | – | > 100 | > 100 | –
24 | CN1CCN(C(=S)N(C)C(=O)c2ccc(Cl)cc2)CC1 | > 100 | > 100 | > 100 | –
25 | CC(C)/C(Cl)=N\OC(=O)NNc1ccccc1 | 35.3 | > 100 | 99.7 | –
26 | CCn1c(=O)c2c3cc(O)ccc3oc2c2ccc(O)cc21 | 80.3 | > 100 | > 100 | –
27 | COC1C=CC23c4cc5c(cc4C(O)OC2CN(C)C3C1)OCO5 (stereo not given) | – | – | 5.36 | TGI (DMS 273 small cell lung): 6.87 µM; TGI (DMS 114 small cell lung): 6.05 µM; TGI (M19-MEL melanoma): 8.82 µM; TGI (KM20L2 colon): 9.1 µM; TGI (LXFL 529 NSCLC): 9.55 µM
28 | O=C1N[C@@H]2c3c(csc3Br)C(=O)[C@@H]2O1 | 59.3 | > 100 | – | –
29 | O=C1/C(=C/c2ccc([N+](=O)[O-])cc2)CNC/C1=C\c1ccc([N+](=O)[O-])cc1 | 59 | 17 | > 57.5 | –
30 | C=CCCCC12CCCc3cccc(c31)NC2=O (stereo not given) | 31.8 | – | 40.3 | TGI (RXF-631 renal): 55.6 µM; TGI (DMS 114 small cell lung): 33 µM; TGI (XF 498 CNS): 41.7 µM; TGI (KM20L2 colon): 47 µM; TGI (DLD-1 colon): 42.4 µM
